Results: the NIST ThermoML archive (doi:10.1016/j.jct.2017.05.001)

Test: wn = mass fraction of the nth substance listed
Details: Liquid; for viscosity: Falling or rolling sphere viscometry; for mass density: Vibrating tube method

OCCN(CCO)CCO [triethanolamine] + O
Details	mass density, w1 = 0.0992 [kg/m3]	mass density, w1 = 0.2 [kg/m3]	mass density, w1 = 0.2991 [kg/m3]	mass density, w1 = 0.4 [kg/m3]	viscosity, w1 = 0.0992 [mPa·s]	viscosity, w1 = 0.2 [mPa·s]	viscosity, w1 = 0.2991 [mPa·s]	viscosity, w1 = 0.4 [mPa·s]
373.15 K, 30000 kPa	985.1	998.4	1012.5	1027.7	0.3632	0.4601	0.6109	0.8363
373.15 K, 40000 kPa	989.4	1002.6	1016.8	1032	0.3659	0.4638	0.6193	0.8525
373.15 K, 50000 kPa	993.4	1006.7	1020.7	1035.7	–	–	–	–
373.15 K, 60000 kPa	997.4	1010.6	1024.6	1039.7	0.3738	0.4753	0.6379	0.8789
373.15 K, 70000 kPa	1001.4	1014.5	1028.4	1043.5	–	–	–	–
373.15 K, 80000 kPa	1005.3	1018.5	1032.4	1047.3	0.3807	0.4864	0.655	0.9114
373.15 K, 90000 kPa	1009.1	1022.1	1036	1050.8	–	–	–	–
373.15 K, 100000 kPa	1012.7	1025.7	1039.5	1054.3	0.3871	0.4953	0.6721	0.9403
373.15 K, 110000 kPa	1016.4	1029.4	1043.1	1057.9	–	–	–	–
373.15 K, 120000 kPa	1019.9	1032.9	1046.8	1061.3	–	–	–	–
373.15 K, 130000 kPa	1023.3	1036.2	1050.1	1064.6	–	–	–	–
373.15 K, 140000 kPa	1026.8	1039.7	1053.4	1067.8	–	–	–	–
393.15 K, 100 kPa	956.1	969.2	982.9	998.1	–	–	–	–
393.15 K, 500 kPa	956.4	969.5	983.3	998.5	–	–	–	–
393.15 K, 1000 kPa	956.6	969.7	983.5	998.6	–	–	–	–
393.15 K, 2000 kPa	957.1	970.2	984	999.1	–	–	–	–
393.15 K, 5000 kPa	958.6	971.7	985.5	1000.6	0.2913	0.3551	0.4515	0.5873
393.15 K, 10000 kPa	961.1	974.2	988	1003.1	0.2912	0.3579	0.4583	0.5948
393.15 K, 15000 kPa	963.4	976.5	990.3	1005.4	0.2933	0.3633	0.4629	0.6019
393.15 K, 20000 kPa	965.9	978.9	992.7	1007.8	0.295	0.362	0.4675	0.609
393.15 K, 25000 kPa	–	–	–	–	0.2963	0.3674	0.4703	0.6136
393.15 K, 30000 kPa	970.4	983.5	997.3	1012.4	0.2988	0.3659	0.4738	0.6246
393.15 K, 40000 kPa	974.9	988	1001.8	1016.7	0.3022	0.3704	0.4822	0.6362
393.15 K, 50000 kPa	979.2	992.3	1006	1021	–	–	–	–
393.15 K, 60000 kPa	983.5	996.5	1010.2	1025.2	0.308	0.3798	0.4973	0.6588
393.15 K, 70000 kPa	987.7	1000.7	1014.4	1029.3	–	–	–	–
393.15 K, 80000 kPa	991.7	1004.6	1018.3	1033.1	0.3138	0.3888	0.5121	0.6835
393.15 K, 90000 kPa	995.7	1008.6	1022.3	1037.1	–	–	–	–
393.15 K, 100000 kPa	999.4	1012.3	1026.1	1040.7	0.32	0.3982	0.5378	0.7054
393.15 K, 110000 kPa	1003.3	1016.1	1029.8	1044.5	–	–	–	–
393.15 K, 120000 kPa	1006.9	1019.8	1033.4	1048.1	–	–	–	–
393.15 K, 130000 kPa	1010.4	1023.4	1036.9	1051.5	–	–	–	–
393.15 K, 140000 kPa	1014.1	1026.9	1040.5	1055	–	–	–	–
